Experimental data from patent US8338428B2, “Methods for administering aripiprazole” (Alkermes, Inc., priority 2003, dated 2012).
“Also recorded” adds a separate entry of the source.

Assay: Pharmacokinetic evaluation of aripiprazole in rats following single subcutaneous doses of aripiprazole formulations
Type: in vivo, Sprague-Dawley rats
Conditions: rat, single SC injection of 10, 20 or 30 mg bulk drug in 0.75 mL diluent (3% CMC, 0.1% Tween 20, 0.9% NaCl); plasma 2 h to 28 d; versus microspheres with 30% or 50% load
Method: Experimental: Pharmacokinetic Evaluation of Aripiprazole in Rats Following Administration of Single Subcutaneous Doses of Aripiprazole Formulations. Species and Strain: Sprague-Dawley rats. Male; 450 +/−50 grams. Study Groups: 5 Groups, 15 subjects • Group A: three rats injected once SC with 10 mg of Aripiprazole. • Group B: three rats injected once SC with 20 mg of Aripiprazole. • Group C: three rats injected once SC with 30 mg of Aripiprazole. • Group D: three rats injected once SC with ˜67 mg of microparticles. • Group E: three rats injected once SC with ˜40 mg of microparticles. […] Route of Injection: Subcutaneous (SC) injection into the interscapular region. Injection Vehicle: Aqueous diluent containing 3% CMC (low viscosity), 0.1% Tween 20, in 0.9% NaCl and water. Dose Volumes: Suspensions were formulated as follows: • Group A: 10 mg powder in 0.75 mL Diluent • Group B: 20 mg powder in 0.75 mL Diluent • Group C: 30 mg powder in 0.75 mL Diluent • Group D: ˜67 mg microparticles in 0.75 mL Diluent • Group E: 40 mg microparticles in 0.75 mL Diluent Blood Collection: Blood samples were collected via a lateral tail vein after anesthesia with Halothane. A syringe without an anticoagulant was used for the blood collection, then the whole blood was transferred to tubes containing K2 EDTA and mixing beads (MICROTAINER®; MFG# BD365974). […]

O=C1CCc2ccc(OCCCCN3CCN(c4cccc(Cl)c4Cl)CC3)cc2N1 [aripiprazole, Aripiprazole]
plasma release profile of SC bolus injection compared with aripiprazole-containing PLGA microspheres: substantially the same; also recorded: extended release profile similar to that obtained by the injection of a poly lactide-co-glycolide microsphere formulation
